Article PMC6984391, “Anion carriers as potential treatments for cystic fibrosis: transport in cystic fibrosis cells, and additivity to channel-targeting drugs” (Chemical Science, 2019)

Target: T1, Ca^2+-activated Cl^– channel (CaCC) (Homo sapiens, UniProt Q5XXA6)
T1 construct: endogenous in cells; host or cells: CFBE41o- cells stably expressing YFP (YFP-CFBE cells)
T1 sequence (Q5XXA6 1-986): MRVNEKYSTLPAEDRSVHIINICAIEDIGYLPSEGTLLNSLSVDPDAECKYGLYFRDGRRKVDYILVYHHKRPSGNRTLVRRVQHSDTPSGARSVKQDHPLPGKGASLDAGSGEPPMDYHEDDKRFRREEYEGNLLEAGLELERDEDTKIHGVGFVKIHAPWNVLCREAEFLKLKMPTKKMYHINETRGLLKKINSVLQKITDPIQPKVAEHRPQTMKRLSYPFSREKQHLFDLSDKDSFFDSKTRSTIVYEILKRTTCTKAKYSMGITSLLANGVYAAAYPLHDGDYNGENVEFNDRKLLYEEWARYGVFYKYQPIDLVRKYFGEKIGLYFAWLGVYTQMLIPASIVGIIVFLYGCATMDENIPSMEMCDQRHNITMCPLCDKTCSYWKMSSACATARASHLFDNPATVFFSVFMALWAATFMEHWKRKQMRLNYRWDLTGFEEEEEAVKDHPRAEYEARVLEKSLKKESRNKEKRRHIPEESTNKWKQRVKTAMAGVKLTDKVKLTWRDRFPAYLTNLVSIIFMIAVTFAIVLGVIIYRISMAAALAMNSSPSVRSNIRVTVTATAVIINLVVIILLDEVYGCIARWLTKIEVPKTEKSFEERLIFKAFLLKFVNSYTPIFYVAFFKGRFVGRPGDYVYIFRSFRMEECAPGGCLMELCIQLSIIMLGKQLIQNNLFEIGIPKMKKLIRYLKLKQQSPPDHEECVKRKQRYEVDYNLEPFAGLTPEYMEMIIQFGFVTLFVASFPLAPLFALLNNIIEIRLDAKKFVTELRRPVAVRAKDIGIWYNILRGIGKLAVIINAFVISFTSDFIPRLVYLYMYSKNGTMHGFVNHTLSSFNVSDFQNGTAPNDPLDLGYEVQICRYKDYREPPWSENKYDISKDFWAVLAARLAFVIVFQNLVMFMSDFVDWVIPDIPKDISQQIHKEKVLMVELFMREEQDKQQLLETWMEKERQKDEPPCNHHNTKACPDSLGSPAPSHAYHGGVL
Assay: CaCC-mediated anion transport in YFP-CFBE cells
Type: cell-based
Settings: UTP 1 mM; CaCCinh-A01 10 μM
Experimental: (for chemical structure, see ESI Fig. S15 ^†).
the PBS bathing cells 10 minutes prior to PBS iodide addition, whereas UTP was added to cells with the PBS iodide solution. Fluorescence was measured for 14 seconds; 2 seconds before and 12 seconds after injection of 110 l PBS iodide solution (137 mM Cl- replaced by I-) into each well (to obtain a final concentration of I- of 100 mM).
We expressed cell fluorescence values (F) relative to the fluorescence value immediately before I- injection (F0), excluding the initial decrease, which likely represents the quenching of extracellular YFP released from cells and signal reduction accompanying the increase in solution volume bathing cells. To quantify anion transport by test anionophores, we determined the initial slope of the fluorescence decay following I - addition by fitting first order exponential functions to the last 12 seconds of each fluorescence recording. […]
fluorescence microscopy as described previously.10 In brief, YFP-FRT cells were washed 3x with PBS before transfer to a perfusion chamber mounted on the stage of a Leica DM IRB microscope. […] Any anionophore not incorporated into YFP-FRT cell membranes was removed from the chamber by perfusion with PBS when fluorescence measurements commenced. […]
Fluorescence quenching by the anionophore vehicle DMSO was subtracted from each test measurement. […]

Structure (SMILES): O=c1ccn([C@@H]2O[C@H](COP(=O)(O)OP(=O)(O)OP(=O)(O)O)[C@@H](O)[C@H]2O)c(=O)[nH]1 [UTP]
- effect on CaCC activity: activated little CaCC activity
